Experimental findings from US9924721B2 (priority 2013, dated 2018) are described below.

For data set [1] the following is noted: pH 2.7.
Data set [2] relates to Plasmopara viticola. Description: Plasmopara test (grapevines)/preventive. Format: in vivo. Conditions: spray, evaluated 6 days after inoculation. On the procedure:
Plasmopara Test (Grapevines)/Preventive
• Solvent: 24.5 parts by weight of acetone • 24.5 parts by weight of dimethylacetamide • Emulsifier: 1 part by weight of alkylaryl polyglycol ether
To produce a suitable preparation of active compound, 1 part by weight of active compound is mixed with the stated amounts of solvent and emulsifier, and the concentrate is diluted with water to the desired concentration.
To test for preventive activity, young plants are sprayed with the preparation of active compound at the stated rate of application. After the spray coating has dried on, the plants are inoculated with an aqueous spore suspension of Plasmopara viticola and then remain for 1 day in an incubation cabinet at approximately 20° C. and a relative atmospheric humidity of 100%. The plant is subsequently placed for 4 days in a greenhouse at approximately 21° C. and a relative atmospheric humidity of approximately 90%. The plants are then misted and placed for 1 day in an incubation cabinet.
The test is evaluated 6 days after the inoculation. 0% means an efficacy which corresponds to that of the untreated control, while an efficacy of 100% means that no disease is observed.

Data set [3] deals with Pythium ultimum. Kind of data set: Pythium ultimum in vitro cell test. The class given is cell-based. Conditions: 4 days incubation. On the procedure: Pythium ultimum In Vitro Cell Test
• Solvent: DMSO • Culture medium: 14.6 g anhydrous D-glucose (VWR), 7.1 g Mycological Peptone (Oxoid), 1.4 g granulated Yeast Extract (Merck), QSP liter • Inoculum: mycelial suspension
Fungicides were solubilized in DMSO and the solution used to prepare the required range of concentrations. The final concentration of DMSO used in the assay was ≤1%.
Inoculum was prepared from a pre-culture of P. ultimum grown in liquid medium by homogenization using a blender. The concentration of ground mycelium in the inoculum was estimated and adjusted to the desired optical density (OD).
Fungicides were evaluated for their ability to inhibit mycelium growth in liquid culture assay. The compounds were added in the desired concentrations to culture medium containing the mycelial suspension. After 4 days of incubation, the fungicidal efficacy of compounds was determined by spectrometric measurement of mycelium growth. Inhibition of fungal growth was determined by comparing the absorbance values in wells containing the fungicides with the absorbance in control wells without fungicides.

Data set [4] has as its system Phytophthora infestans. Format: in vivo. As to conditions: tomatoes, spray, evaluated 3 days after inoculation.
For data set [5], the system named is Phytophthora infestans. Kind of data set: microbe, parasite or virus in culture. As to conditions: for Eff. % (inhibition of fungal growth): 8 days incubation. The class given is cell-based.
Data set [6] is described as follows: physchem. Conditions: pH 2.7.
The mark [7] stands for this setting: 0.25 μg/mL of active ingredient.

Structures are written as SMILES. Like-named read-outs stand apart in the source and are kept apart here. Marks after values point to notes of the source that are not given here.

For the compound `CCOC(=O)C(C(=O)N1CCC(c2nc(C3=NOC(c4c(Cl)cccc4OS(C)(=O)=O)C3)cs2)CC1)n1nc(C(F)F)cc1C(F)F` (stereo not drawn) [Example I-08], the “Log P” value in data set [1] was 3.50^[a]. In addition, the “Eff. % (preventive efficacy)” value in data set [2] (100 ppm of active ingredient) worked out at 98%; in data set [4] (100 ppm of active ingredient), 95%. For the same compound, the “Eff. % (inhibition of fungal growth)” value in data set [3] (20 μg/mL of active ingredient) was determined as 87%; in data set [5] (20 μg/mL of active ingredient) it was 99%.
The matching figures for `C#CCOc1cccc(Cl)c1C1CC(c2csc(C3CCN(C(=O)C(C(=O)OCC)n4nc(C(F)F)cc4C(F)F)CC3)n2)=NO1` (stereo not drawn) [Example I-16]: 3.82^[a], 95%, 98%, 94% and 100%.
Take `C#CCOc1ccccc1C1CC(c2csc(C3CCN(C(=O)CC(=O)OCC)CC3)n2)=NO1` (stereo not drawn) [Example I-41, ethyl 3-oxo-3-[4-(4-{5-[2-(prop-2-yn-1-yloxy)phenyl]-4,5-dihydro-1,2-oxazol-3-yl}-1,3-thiazol-2-yl)piperidin-1-yl]propanoate]: the “Eff. % (preventive efficacy)” value is 91% in data set [2] (1 ppm of active ingredient) and 94% in data set [4] (1 ppm of active ingredient). The inhibition (usually the relative decrease from the control value, in per cent) at 20 µg/mL in data set [3] (Globisporangium ultimum, 96 h, 20 μg/mL of active ingredient, read-out: Eff. % (inhibition of fungal growth)) is 99%; in data set [5] (Phytophthora infestans, 192 h, read-out: Eff. % (inhibition of fungal growth)) it was 100%. Further, the chromatographic logP (as a rule, lipophilicity estimated from chromatographic retention) in data set [6] worked out at 2.7.
Take `C#CCOc1cccc(Cl)c1C1CC(c2csc(C3CCN(C(=O)CC(=O)OCC)CC3)n2)=NO1` (stereo not drawn) [Example I-51]: the “Log P” value in data set [1] is 2.81^[a]. Further, in data set [2] (1 ppm of active ingredient), the “Eff. % (preventive efficacy)” value amounted to 94%. In addition, the figures for the “Eff. % (inhibition of fungal growth)” value in data set [3] (20 μg/mL of active ingredient) and in data set [5] (20 μg/mL of active ingredient) were 95% and 100%, respectively.
On to `C#CCOc1cccc(F)c1C1CC(c2csc(C3CCN(C(=O)CC(=O)OCC)CC3)n2)=NO1` (stereo not drawn) [Example I-42], for which the “Log P” value in data set [1] is 2.58^[a]. Besides, the “Eff. % (preventive efficacy)” value in data set [2] (1 ppm of active ingredient) is reported as 99%; in data set [4] (1 ppm of active ingredient) it was 94%. For the same compound, the “Eff. % (inhibition of fungal growth)” value in data set [3] (20 μg/mL of active ingredient) and in data set [5] (20 μg/mL of active ingredient) was 100% in each case.
Take `COCCOC(=O)C(C(=O)N1CCC(c2nc(C3=NOC(c4ccccc4OS(C)(=O)=O)C3)cs2)CC1)n1nc(C(F)F)cc1C(F)F` (stereo not drawn) [Example I-05]: the “Log P” value in data set [1] is 3.14^[a]. The “Eff. % (preventive efficacy)” value is on record as 95% in data set [2] (100 ppm of active ingredient) and 96% in data set [4] (100 ppm of active ingredient). Also, the “Eff. % (inhibition of fungal growth)” value in data set [3] (20 μg/mL of active ingredient) worked out at 87%; in data set [5] (setting [7]) it was 100%.
`CC(C)OC(=O)C(C(=O)N1CCC(c2nc(C3=NOC(c4ccccc4OS(C)(=O)=O)C3)cs2)CC1)n1nc(C(F)F)cc1C(F)F` (stereo not drawn) [Example I-01]: the “Log P” value in data set [1] was 3.53^[a]. The “Eff. % (inhibition of fungal growth)” value in data set [3] (20 μg/mL of active ingredient) is given as 95%; in data set [5] (20 μg/mL of active ingredient), 100%. In addition, in data set [4] (100 ppm of active ingredient), the “Eff. % (preventive efficacy)” value came out at 70%.
Regarding `C#CCOc1cccc(F)c1C1CC(c2csc(C3CCN(C(=O)C(C(=O)OCCOC)n4nc(C(F)F)cc4C(F)F)CC3)n2)=NO1` (stereo not drawn) [Example I-02], the “Log P” value in data set [1] is 3.37^[a]. The “Eff. % (preventive efficacy)” value in data set [2] (100 ppm of active ingredient) was found to be 100%; in data set [4] (100 ppm of active ingredient), 96%. Moreover, the entries for the “Eff. % (inhibition of fungal growth)” value in data set [3] (of active ingredient) and in data set [5] (setting [7]) were 96% and 100%, respectively.
For the compound `C#CCOc1cccc(F)c1C1CC(c2csc(C3CCN(C(=O)C(Br)C(=O)OC(C)C)CC3)n2)=NO1` (stereo not drawn) [Example I-38], in data set [1], the “Log P” value is 3.30^[a]. For the same compound, the “Eff. % (preventive efficacy)” value in data set [2] (1 ppm of active ingredient) is listed as 93%. For the same compound, the “Eff. % (inhibition of fungal growth)” value worked out at 99% in data set [3] (of active ingredient) and 100% in data set [5] (setting [7]).
Turning to `CCOC(=O)C(C(=O)N1CCC(c2nc(C3=NOC(c4c(F)cccc4OS(C)(=O)=O)C3)cs2)CC1)n1nc(C(F)F)cc1C(F)F` (stereo not drawn) [Example I-03], the “Log P” value in data set [1] was 3.29^[a]. Moreover, the “Eff. % (preventive efficacy)” value in data set [2] (100 ppm of active ingredient) is recorded as 98%; in data set [4] (100 ppm of active ingredient), 95%. Also, the “Eff. % (inhibition of fungal growth)” value was determined as 96% in data set [3] (20 μg/mL of active ingredient) and 99% in data set [5] (20 μg/mL of active ingredient).
As to `C#CCOc1cccc(F)c1C1CC(c2csc(C3CCN(C(=O)CC(=O)OC(C)C)CC3)n2)=NO1` (stereo not drawn) [Example I-44], the “Log P” value in data set [1] was 2.85^[a]. Also, the “Eff. % (preventive efficacy)” value in data set [2] (1 ppm of active ingredient) came out at 82%. For the same compound, the “Eff. % (inhibition of fungal growth)” value amounted to 99% in data set [3] (20 μg/mL of active ingredient) and 100% in data set [5] (20 μg/mL of active ingredient).
